Reference: ChEMBL document CHEMBL1201862, “PubChem BioAssay data set” (2004)
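How tested: cells in 96-well plates exposed to compound for 48 hours at five concentrations. Here, GI50 denotes the concentration required for 50% inhibition of growth.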 Activity calls are given as the source filed them. Cut-off read from the data, not from the text of the source: active = GI50 up to about 1.1 µM and inactive = higher.

What was measured:
Experiment in all cases: growth of human tumour cells (NCI), 48 h
786-0 = test system: 786-0
A498 = test system: A498
ACHN = test system: ACHN
CCRF-CEM = test system: CCRF-CEM
COLO 205 = test system: COLO 205
DU-145 = test system: DU-145
HCC 2998 = test system: HCC 2998
Hs-578T = test system: Hs-578T
IGROV-1 = test system: IGROV-1
MCF7 = test system: MCF7
MDA-MB-231 = test system: MDA-MB-231
OVCAR-3 = test system: OVCAR-3
OVCAR-4 = test system: OVCAR-4
SK-MEL-5 = test system: SK-MEL-5
SK-OV-3 = test system: SK-OV-3
SNB-19 = test system: SNB-19
SR = test system: SR
SW-620 = test system: SW-620
TK-10 = test system: TK-10

C=CCn1c2c(c3ccccc3c1=O)C(=O)c1ccccc1-2
GI50 (786-0): 22.4 µM (inactive)
GI50 (A498): > 100 µM (inactive)
GI50 (ACHN): 51.9 µM (inactive)
GI50 (CCRF-CEM): > 100 µM (inactive)
GI50 (COLO 205): > 100 µM (inactive)
GI50 (DU-145): > 89.3 µM (inactive)
GI50 (HCC 2998): > 100 µM (inactive)
GI50 (Hs-578T): > 60.3 µM (inactive)
GI50 (IGROV-1): > 100 µM (inactive)
GI50 (MCF7): > 100 µM (inactive)
GI50 (MDA-MB-231): > 85.3 µM (inactive)
GI50 (OVCAR-3): > 100 µM (inactive)
GI50 (OVCAR-4): 54.8 µM (inactive)
GI50 (SK-MEL-5): 43.8 µM (inactive)
GI50 (SK-OV-3): > 100 µM (inactive)
GI50 (SNB-19): 73.8 µM (inactive)
GI50 (SR): 3.97 µM (inactive)
GI50 (SW-620): 73.6 µM (inactive)
GI50 (TK-10): > 50.6 µM (inactive)

c1cnc2c(c1)ccc1cccnc12
GI50 (786-0): 3.78 µM (inactive)
GI50 (A498): 12.6 µM (inactive)
GI50 (ACHN): 2.86 µM (inactive)
GI50 (CCRF-CEM): 1.87 µM (inactive)
GI50 (COLO 205): 4.27 µM (inactive)
GI50 (DU-145): 4.13 µM (inactive)
GI50 (HCC 2998): 6.7 µM (inactive)
GI50 (Hs-578T): > 36.3 µM (inactive)
GI50 (IGROV-1): 4.26 µM (inactive)
GI50 (MCF7): 3.66 µM (inactive)
GI50 (MDA-MB-231): > 42.1 µM (inactive)
GI50 (OVCAR-3): 6.67 µM (inactive)
GI50 (OVCAR-4): 4.63 µM (inactive)
GI50 (SK-MEL-5): 2.62 µM (inactive)
GI50 (SK-OV-3): 11.7 µM (inactive)
GI50 (SNB-19): 8.57 µM (inactive)
GI50 (SR): 1.02 µM (active)
GI50 (SW-620): 8.69 µM (inactive)
GI50 (TK-10): 3.88 µM (inactive)

O=C(O)CN1CCN(CC(=O)N2CCN(C(=O)OCc3ccccc3)CC2)CCN(CC(=O)O)CCN(CC(=O)N2CCN(C(=O)OCc3ccccc3)CC2)CC1
GI50 (786-0): > 100 µM (inactive)
GI50 (A498): > 100 µM (inactive)
GI50 (ACHN): > 100 µM (inactive)
GI50 (CCRF-CEM): > 100 µM (inactive)
GI50 (COLO 205): > 100 µM (inactive)
GI50 (DU-145): > 100 µM (inactive)
GI50 (HCC 2998): > 100 µM (inactive)
GI50 (Hs-578T): > 100 µM (inactive)
GI50 (IGROV-1): > 100 µM (inactive)
GI50 (MCF7): > 100 µM (inactive)
GI50 (MDA-MB-231): > 100 µM (inactive)
GI50 (OVCAR-3): > 100 µM (inactive)
GI50 (OVCAR-4): > 100 µM (inactive)
GI50 (SK-MEL-5): > 100 µM (inactive)
GI50 (SK-OV-3): > 100 µM (inactive)
GI50 (SNB-19): > 100 µM (inactive)
GI50 (SR): > 100 µM (inactive)
GI50 (SW-620): > 100 µM (inactive)
GI50 (TK-10): > 100 µM (inactive)

Cc1nnc(Sc2nc(C#N)c(C#N)nc2Sc2nnc(C)s2)s1
GI50 (786-0): 4.13 µM (inactive)
GI50 (A498): 18.7 µM (inactive)
GI50 (ACHN): 2.93 µM (inactive)
GI50 (CCRF-CEM): 2.1 µM (inactive)
GI50 (COLO 205): 4.84 µM (inactive)
GI50 (DU-145): 14.9 µM (inactive)
GI50 (HCC 2998): 20 µM (inactive)
GI50 (Hs-578T): 14.6 µM (inactive)
GI50 (IGROV-1): 7.24 µM (inactive)
GI50 (MCF7): 5.82 µM (inactive)
GI50 (MDA-MB-231): 15.9 µM (inactive)
GI50 (OVCAR-3): 6.32 µM (inactive)
GI50 (OVCAR-4): 13.4 µM (inactive)
GI50 (SK-MEL-5): 20.6 µM (inactive)
GI50 (SK-OV-3): 17.2 µM (inactive)
GI50 (SNB-19): 22 µM (inactive)
GI50 (SR): 9.79 µM (inactive)
GI50 (SW-620): 1.67 µM (inactive)
GI50 (TK-10): 11.1 µM (inactive)

COc1cccc2c1C(=O)C1=C(C2=O)C(O)CC(C)(C)O1 (centres undefined)
GI50 (786-0): 42.4 µM (inactive)
GI50 (A498): > 100 µM (inactive)
GI50 (ACHN): 36.1 µM (inactive)
GI50 (CCRF-CEM): 23.4 µM (inactive)
GI50 (COLO 205): 23.5 µM (inactive)
GI50 (DU-145): > 100 µM (inactive)
GI50 (HCC 2998): 33.6 µM (inactive)
GI50 (Hs-578T): > 100 µM (inactive)
GI50 (IGROV-1): 31.6 µM (inactive)
GI50 (MCF7): 36.6 µM (inactive)
GI50 (MDA-MB-231): 25.6 µM (inactive)
GI50 (OVCAR-3): 13.1 µM (inactive)
GI50 (OVCAR-4): 19.3 µM (inactive)
GI50 (SK-MEL-5): 14.4 µM (inactive)
GI50 (SK-OV-3): > 100 µM (inactive)
GI50 (SNB-19): 76.7 µM (inactive)
GI50 (SR): 16.3 µM (inactive)
GI50 (SW-620): 34.1 µM (inactive)
GI50 (TK-10): > 100 µM (inactive)

CC1OC1P(=O)(O)O (centres undefined)
GI50 (786-0): > 100 µM (inactive)
GI50 (A498): > 100 µM (inactive)
GI50 (ACHN): > 100 µM (inactive)
GI50 (CCRF-CEM): 27.5 µM (inactive)
GI50 (COLO 205): > 100 µM (inactive)
GI50 (DU-145): > 100 µM (inactive)
GI50 (HCC 2998): > 100 µM (inactive)
GI50 (Hs-578T): > 100 µM (inactive)
GI50 (IGROV-1): > 100 µM (inactive)
GI50 (MCF7): > 100 µM (inactive)
GI50 (MDA-MB-231): > 100 µM (inactive)
GI50 (OVCAR-3): > 100 µM (inactive)
GI50 (OVCAR-4): > 100 µM (inactive)
GI50 (SK-MEL-5): > 100 µM (inactive)
GI50 (SK-OV-3): > 100 µM (inactive)
GI50 (SNB-19): > 100 µM (inactive)
GI50 (SR): > 100 µM (inactive)
GI50 (SW-620): > 100 µM (inactive)
GI50 (TK-10): > 100 µM (inactive)

CCN(CC)c1ccc2cc(C(=O)NCc3ccccc3)c(=N)oc2c1
GI50 (786-0): > 62.1 µM (inactive)
GI50 (A498): > 100 µM (inactive)
GI50 (ACHN): 5.43 µM (inactive)
GI50 (CCRF-CEM): 13.3 µM (inactive)
GI50 (COLO 205): 16 µM (inactive)
GI50 (DU-145): 35 µM (inactive)
GI50 (HCC 2998): 40.4 µM (inactive)
GI50 (Hs-578T): > 37.6 µM (inactive)
GI50 (IGROV-1): 43.7 µM (inactive)
GI50 (MCF7): 36.4 µM (inactive)
GI50 (MDA-MB-231): > 46.3 µM (inactive)
GI50 (OVCAR-3): 15.6 µM (inactive)
GI50 (OVCAR-4): 16.9 µM (inactive)
GI50 (SK-MEL-5): 27.6 µM (inactive)
GI50 (SK-OV-3): 56.8 µM (inactive)
GI50 (SNB-19): 54.3 µM (inactive)
GI50 (SR): > 42.6 µM (inactive)
GI50 (SW-620): 6.01 µM (inactive)
GI50 (TK-10): 14.4 µM (inactive)

Cn1ccnc1Sc1ccc(/C=N/c2ccc3nc(SCC(=O)NC4CCCCC4)sc3c2)cc1[N+](=O)[O-]
GI50 (786-0): 11.6 µM (inactive)
GI50 (A498): 14.6 µM (inactive)
GI50 (ACHN): 16.6 µM (inactive)
GI50 (CCRF-CEM): > 100 µM (inactive)
GI50 (COLO 205): > 100 µM (inactive)
GI50 (DU-145): > 100 µM (inactive)
GI50 (HCC 2998): > 100 µM (inactive)
GI50 (Hs-578T): 18.6 µM (inactive)
GI50 (IGROV-1): 37.1 µM (inactive)
GI50 (MCF7): > 100 µM (inactive)
GI50 (MDA-MB-231): 31.4 µM (inactive)
GI50 (OVCAR-3): 91.6 µM (inactive)
GI50 (OVCAR-4): > 100 µM (inactive)
GI50 (SK-MEL-5): > 100 µM (inactive)
GI50 (SK-OV-3): 20.2 µM (inactive)
GI50 (SNB-19): 13.7 µM (inactive)
GI50 (SR): > 100 µM (inactive)
GI50 (SW-620): > 100 µM (inactive)
GI50 (TK-10): 15.6 µM (inactive)

C/C1=C/C(C)CC(C)OC(=O)C(C)NC(=O)C(Cc2ccc(O)c(I)c2)N(C)C(=O)C(C)NC(=O)C(C)C1 (centres undefined)
GI50 (786-0): < 0.01 µM (active)
GI50 (A498): < 0.01 µM (active)
GI50 (ACHN): < 0.01 µM (active)
GI50 (CCRF-CEM): < 0.01 µM (active)
GI50 (COLO 205): < 0.01 µM (active)
GI50 (DU-145): 0.0302 µM (active)
GI50 (HCC 2998): < 0.01 µM (active)
GI50 (Hs-578T): < 0.01 µM (active)
GI50 (IGROV-1): < 0.01 µM (active)
GI50 (MCF7): < 0.0371 µM (active)
GI50 (MDA-MB-231): < 0.01 µM (active)
GI50 (OVCAR-3): < 0.01 µM (active)
GI50 (OVCAR-4): < 0.01 µM (active)
GI50 (SK-MEL-5): < 0.0133 µM (active)
GI50 (SK-OV-3): < 0.01 µM (active)
GI50 (SNB-19): 0.0667 µM (active)
GI50 (SR): < 0.01 µM (active)
GI50 (SW-620): < 0.01 µM (active)
GI50 (TK-10): < 0.01 µM (active)

COc1cc(/C=C\c2nnc(/C=C\c3ccc(O)c(OC)c3)s2)ccc1O
GI50 (786-0): 3.85 µM (inactive)
GI50 (A498): 2.27 µM (inactive)
GI50 (ACHN): 3.61 µM (inactive)
GI50 (CCRF-CEM): 2.18 µM (inactive)
GI50 (COLO 205): 13.8 µM (inactive)
GI50 (DU-145): 2.32 µM (inactive)
GI50 (HCC 2998): 3.48 µM (inactive)
GI50 (Hs-578T): 3.01 µM (inactive)
GI50 (IGROV-1): 3.78 µM (inactive)
GI50 (MCF7): 0.69 µM (active)
GI50 (MDA-MB-231): 4.94 µM (inactive)
GI50 (OVCAR-3): 1.91 µM (inactive)
GI50 (OVCAR-4): 2.61 µM (inactive)
GI50 (SK-MEL-5): 1.16 µM (inactive)
GI50 (SK-OV-3): 4.41 µM (inactive)
GI50 (SNB-19): 4.58 µM (inactive)
GI50 (SR): 1.24 µM (inactive)
GI50 (SW-620): 1.74 µM (inactive)
GI50 (TK-10): 4.89 µM (inactive)

CC1=[N+](C)CCCN1C
GI50 (786-0): > 100 µM (inactive)
GI50 (A498): 8.69 µM (inactive)
GI50 (ACHN): > 100 µM (inactive)
GI50 (CCRF-CEM): > 100 µM (inactive)
GI50 (COLO 205): > 100 µM (inactive)
GI50 (DU-145): > 100 µM (inactive)
GI50 (HCC 2998): > 100 µM (inactive)
GI50 (Hs-578T): > 100 µM (inactive)
GI50 (IGROV-1): > 100 µM (inactive)
GI50 (MCF7): > 100 µM (inactive)
GI50 (MDA-MB-231): > 100 µM (inactive)
GI50 (OVCAR-3): > 100 µM (inactive)
GI50 (OVCAR-4): > 100 µM (inactive)
GI50 (SK-MEL-5): > 100 µM (inactive)
GI50 (SK-OV-3): > 100 µM (inactive)
GI50 (SNB-19): > 100 µM (inactive)
GI50 (SR): > 100 µM (inactive)
GI50 (SW-620): > 100 µM (inactive)
GI50 (TK-10): > 100 µM (inactive)
